# From US20250304560A1, “MODULATORS OF NLRP3 INFLAMMASOME AND RELATED PRODUCTS AND METHODS” (Neumora Therapeutics, Inc., priority 2022, published 2025)
# pIC50: −log10 of the molar value. Read-outs that look alike come from different tables or passages of the source.
# Assays:
# [1] = target: T1, hERG channels (Homo sapiens, UniProt Q12809); assay: hERG assay, whole-cell patch-clamp in CHO-hERG cells; type: cell-based; conditions: for pIC50: whole-cell patch-clamp, CHO-hERG cells
# T1 construct: host or cells: CHO-hERG cells
# T1 sequence (Q12809 whole entry): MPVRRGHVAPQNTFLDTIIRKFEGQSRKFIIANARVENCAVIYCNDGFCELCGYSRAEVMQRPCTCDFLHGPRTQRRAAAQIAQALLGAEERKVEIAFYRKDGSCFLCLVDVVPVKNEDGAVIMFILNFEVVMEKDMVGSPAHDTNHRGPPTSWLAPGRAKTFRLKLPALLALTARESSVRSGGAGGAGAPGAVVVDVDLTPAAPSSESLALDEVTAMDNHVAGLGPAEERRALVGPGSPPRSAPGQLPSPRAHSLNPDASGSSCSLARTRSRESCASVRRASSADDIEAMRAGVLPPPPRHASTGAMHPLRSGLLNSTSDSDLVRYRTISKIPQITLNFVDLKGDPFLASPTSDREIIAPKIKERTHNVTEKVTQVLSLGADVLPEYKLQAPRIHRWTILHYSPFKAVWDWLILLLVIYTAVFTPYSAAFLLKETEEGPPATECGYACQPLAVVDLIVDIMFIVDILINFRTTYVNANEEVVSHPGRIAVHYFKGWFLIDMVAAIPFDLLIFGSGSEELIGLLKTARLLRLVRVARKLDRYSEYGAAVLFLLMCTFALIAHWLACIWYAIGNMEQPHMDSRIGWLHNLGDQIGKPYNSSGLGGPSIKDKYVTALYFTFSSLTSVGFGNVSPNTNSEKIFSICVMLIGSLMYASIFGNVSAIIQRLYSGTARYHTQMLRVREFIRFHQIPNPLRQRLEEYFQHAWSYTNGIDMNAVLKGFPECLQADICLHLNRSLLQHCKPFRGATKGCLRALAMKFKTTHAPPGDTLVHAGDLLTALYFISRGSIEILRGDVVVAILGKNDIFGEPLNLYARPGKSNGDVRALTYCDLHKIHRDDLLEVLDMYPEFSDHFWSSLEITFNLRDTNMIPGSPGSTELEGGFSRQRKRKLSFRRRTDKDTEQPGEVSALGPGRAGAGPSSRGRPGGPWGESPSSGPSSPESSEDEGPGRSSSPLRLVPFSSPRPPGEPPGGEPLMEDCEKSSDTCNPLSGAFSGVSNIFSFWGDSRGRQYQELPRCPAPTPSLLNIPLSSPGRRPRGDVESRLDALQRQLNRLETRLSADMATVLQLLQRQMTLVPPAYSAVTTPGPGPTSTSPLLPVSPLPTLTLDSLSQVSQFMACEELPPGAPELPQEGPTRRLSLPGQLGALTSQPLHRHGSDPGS
# Method: CHO-hERG cells (Sophion Biosciences (Ballerup, Denmark), subcultured and frozen in WuXi AppTec (Suzhou) Co., Ltd.), stored in liquid nitrogen, were tested and determined to be free from mycoplasma contamination. Cells were not used after the 30th passage. CHO-hERG cells were cultured in a humidified incubator of 5% CO2 (4% to 8%) in air at 37° C. (±2° C.). The cells were recovered with recovery medium (F12 medium with 10% fetal bovine serum), subcultured in complete medium (F12 medium, supplemented with 10% fetal bovine serum, 1% Geneticin® selective antibiotic (G418), 89 μg/mL Hygromycin B (HB)), and the culture medium was switched to recovery medium in the last subculture before patch-clamp experiment.
# To determine the compounds' IC50, select compounds (“test articles”) were dissolved into DMSO, and then diluted with ECS to get working solutions. Five concentrations of 0.3, 1, 3, 10, and 30 μM were tested. Two replicate cells for each concentration were tested.
# Exponentially growing CHO-hERG cells were collected and suspended in extracellular solution for use. The hERG current was recorded at physiological temperature (33.0° C. to 37.0° C.) using whole-cell patch-clamp techniques. Output signals from the patch-clamp amplifier were digitized and low-pass filtered at 2.9 KHz. The recording was controlled with Patchmaster Pro software. The recording chamber with seeded cells was mounted on an inverted microscope stage. A cell in the recording chamber was randomly selected for testing. The cell was continuously perfused from the perfusion system. A micropipette filled with ICS was used as recording electrode in the manual patch-clamp study. The micropipette was prepared on the day of the patch-clamp experiment using glass capillaries (BF150-117-10, SUTTER INSTRUMENT USA). The pipette resistance (Rp) was within 2 to 5 MΩ with ICS filled. From the holding potential of-80 mV, the voltage was increased to +60 mV for 850 ms to open the hERG channels. After that, the voltage was decreased to-50 mV for 1275 ms, causing a “rebound” or tail current, the peak tail current was measured and collected for data analysis. Finally, the voltage was decreased to the holding potential (−80 mV). This command voltage protocol was repeated every 15 s continuously during the test article application.
# During the initial recording period with vehicle control working solution, the peak tail current amplitude was monitored until it had been stable for at least 3 sweeps. Cells were then perfused with test article/positive control working solutions until the peak tail current amplitude reached steady state. Steady state was considered reached when three consecutive super-imposable peak tail currents were collected. At this point, cells were once again perfused with next concentration of test article. One or more test articles/positive control or different concentrations of the same test article were tested on each cell with vehicle control washout until the current amplitude returned to values at least 80% of those measured before application of test article. […] At least 2 replicate cells for each concentration were tested. […] (Milnes, J. T., et al.)
# Seal criteria: When acquiring whole-cell configuration, a holding potential (e.g.,-80 mV) was applied while membrane parameters were collected (Cm, Rm and Rs). A “good” whole-cell recording was generally defined as: series resistance (Rs) was less than 10 MΩ; membrane resistance (Rm) was more than 500 MΩ and membrane capacitance (Cm) was less than 100 pF. Current amplitude: The peak current amplitude must be between 400 pA and 5000 pA before the test article/positive control application; otherwise the cell was discarded. Leak criteria: At-80 mV holding potential, the absolute leak current value must be less than 200 pA. The amplitude of current was adjusted with leak current at-80 mV. The sweeps which absolute leak current value was more than 200 pA was not used in data analysis.
# [2] = test system: IL-6; assay: IL-6 AlphaLISA in LPS-primed THP1 macrophages; conditions: for pIC50 / IC50: Homo sapiens; for pIC50: THP-1, read-out: IL-6 Activity, LPS-primed THP1 macrophages, Table 11 comparison
# [3] = target: NLRP3 inflammasome (Homo sapiens, UniProt Q96P20); assay: NLRP3 inflammasome activation in THP1 macrophages, IL-1β AlphaLISA; conditions: for IC50: IL-1β Activity (nM), PMA, LPS priming, nigericin 6.7 uM activation
# Sequence of NLRP3 inflammasome (Q96P20 whole entry): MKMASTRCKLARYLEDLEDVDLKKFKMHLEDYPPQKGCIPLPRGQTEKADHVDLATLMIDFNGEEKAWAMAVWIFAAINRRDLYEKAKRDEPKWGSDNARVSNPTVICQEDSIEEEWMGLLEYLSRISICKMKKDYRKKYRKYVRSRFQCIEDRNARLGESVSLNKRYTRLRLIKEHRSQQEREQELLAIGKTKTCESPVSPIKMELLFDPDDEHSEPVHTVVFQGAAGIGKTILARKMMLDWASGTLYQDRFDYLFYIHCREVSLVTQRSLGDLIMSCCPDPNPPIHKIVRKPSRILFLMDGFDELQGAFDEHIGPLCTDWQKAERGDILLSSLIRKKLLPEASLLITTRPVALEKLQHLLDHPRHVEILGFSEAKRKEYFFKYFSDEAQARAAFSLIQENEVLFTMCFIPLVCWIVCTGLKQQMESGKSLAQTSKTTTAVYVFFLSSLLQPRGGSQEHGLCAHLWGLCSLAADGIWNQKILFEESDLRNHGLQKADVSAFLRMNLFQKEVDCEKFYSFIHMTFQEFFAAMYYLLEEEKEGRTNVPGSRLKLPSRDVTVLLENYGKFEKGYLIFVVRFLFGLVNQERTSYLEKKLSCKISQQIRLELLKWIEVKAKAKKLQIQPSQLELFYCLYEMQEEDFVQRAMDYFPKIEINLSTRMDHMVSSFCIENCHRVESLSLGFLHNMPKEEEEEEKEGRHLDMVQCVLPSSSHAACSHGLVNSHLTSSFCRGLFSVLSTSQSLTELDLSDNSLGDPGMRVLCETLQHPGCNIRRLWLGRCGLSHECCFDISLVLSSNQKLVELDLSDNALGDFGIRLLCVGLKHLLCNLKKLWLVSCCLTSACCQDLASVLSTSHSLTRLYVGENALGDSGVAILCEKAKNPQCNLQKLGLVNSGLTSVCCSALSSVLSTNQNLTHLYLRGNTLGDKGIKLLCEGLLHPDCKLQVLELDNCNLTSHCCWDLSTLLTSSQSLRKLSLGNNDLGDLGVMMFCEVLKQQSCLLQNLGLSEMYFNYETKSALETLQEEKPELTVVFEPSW
# [4] = IL-1β Activity, THP1 macrophages, Table 11 comparison
# [5] = THP-1, read-out: IL-6 Activity (μM), THP1 macrophages, PMA, LPS priming, nigericin 6.7 uM
# [6] = THP-1, read-out: IL-6 Activity (μM)
SMILES,pIC50 [2],"IC50 [2, 6] [µM]",pIC50 [3],hERG inhibition (in words) [1],pIC50 ([1]; Table 11 comparison),"pIC50 ([1]; 33.0-37.0 °C, Table 10)",also measured
"Cc1cc(N[C@@H]2CCCN(C)C2)nnc1-c1ccc(C(F)(F)F)cc1O [A, reference compound]",< 5.00,,,high,≥ 6.00,,
"Cc1cc(N[C@@H]2CCCN(C)C2)nnc1-c1ccc(OC(F)(F)F)cc1O [B, reference compound]",< 5.00,,,high,5.52 to 6.00,,IL-1ß activity (in words) [3]: potent
"Cc1ccc(-c2nnc(N[C@@H]3CCCN(C)C3)cc2C)c(O)c1 [C, reference compound]",< 5.00,,,high,4.70 to 5.00,,"IL-1ß activity (in words) [3]: potent; pIC50 [3, 4]: > 9.00"
"Cc1cc(N[C@@H]2CCCN(C)C2)nnc1-c1ccc(Cl)cc1O [D, reference compound]",< 5.00,,,high,5.00 to 5.52,,IL-1ß activity (in words) [3]: potent
Cc1cc(N[C@@H]2CCCN(C)C2)nnc1-c1ccc(F)cc1O [compound 1],,,,,,4.52 to 4.70,"IC50 [2, 5]: < 1 µM; IC50 ([3]; THP1 macrophages): 1 to 10 nM"
"Cc1cc(N[C@@H]2CCCN(C)C2)nnc1-c1ccccc1O [compound 2, 2-[4-methyl-6-[[(3R)-1-methyl-3-piperidyl]amino]pyridazin-3-yl]phenol]",5.00 to 5.30,,,unexpectedly low,< 4.52,< 4.52,"IL-6 activity (in words) [2]: potent; IC50 [2, 5]: 5 to 10 µM; IL-1ß activity (in words) [3]: potent; IC50 ([3]; THP1 macrophages): 1 to 10 nM; pIC50 [3, 4]: 8.00 to 9.00"
Cc1cc(N[C@@H]2CCCN(C)C2)nnc1-c1ccc(C2CC2)cc1O [compound 3],5.00 to 5.30,,,high,5.00 to 5.52,5.00 to 5.52,"IC50 [2, 5]: 5 to 10 µM"
Cc1cccc(O)c1-c1ccc(N[C@@H]2CCCN(C)C2)nn1 [compound 7],,,,,,< 4.52,"IC50 [2, 5]: 1 to 5 µM; IC50 ([3]; THP1 macrophages): 1 to 10 nM"
CCc1ccc(-c2nnc(N[C@@H]3CCCN(C)C3)cc2C)c(O)c1 [compound 15],,,,high,5.00 to 5.52,5.00 to 5.52,"IL-1ß activity (in words) [3]: potent; IC50 ([3]; THP1 macrophages): < 1 nM; pIC50 [3, 4]: > 9.00"
"Cc1cccc(O)c1-c1ccc(N(C)[C@@H]2CCCN(C)C2)nn1 [compound 21, (R)-3-methyl-2-(6-(methyl (1-methylpiperidin-3-yl)amino)pyridazin-3-yl) phenol]",5.00 to 5.30,,,unexpectedly low,< 4.52,< 4.52,"IL-6 activity (in words) [2]: potent; IC50 [2, 5]: 5 to 10 µM; IL-1ß activity (in words) [3]: potent; IC50 ([3]; THP1 macrophages): 10 to 100 nM; pIC50 [3, 4]: 7.00 to 8.00"
Cc1cc(F)cc(O)c1-c1ccc(N(C)[C@@H]2CCCN(C)C2)nn1 [compound 22],< 5.00,,,unexpectedly low,< 4.52,< 4.52,"IL-6 activity (in words) [2]: potent; IC50 [2, 5]: > 10 µM; IL-1ß activity (in words) [3]: potent; IC50 ([3]; THP1 macrophages): 10 to 100 nM; pIC50 [3, 4]: 7.00 to 8.00"
Cc1cc(O[C@@H]2CCCN(C)C2)nnc1-c1ccc(F)cc1O [compound 34],,> 10,7.00 to 8.00,,,< 4.52,
Cc1cc(N[C@@H]2CCCN(C)C2)nnc1-c1ccc(C#N)cc1O [compound 51],5.00 to 5.30,,,unexpectedly low,< 4.52,< 4.52,"IL-6 activity (in words) [2]: potent; IC50 [2, 5]: 5 to 10 µM; IL-1ß activity (in words) [3]: potent; IC50 ([3]; THP1 macrophages): < 1 nM; pIC50 [3, 4]: > 9.00"
"Cc1cc(C[C@H]2CCCN(C)C2)nnc1-c1ccc(F)cc1O [compound 106, (R)-5-fluoro-2-(4-methyl-6-((1-methylpiperidin-3-yl)methyl)pyridazin-3-yl) phenol]",,> 10,< 6.00,,,,
Cc1cc(N[C@@H]2CCCN(C)C2)nnc1-c1ncc(C(F)(F)F)cc1O [compound 107],,> 10,> 9.00,,,,

# More lines, main results first:
pIC50 [2],"IC50 [2, 6] [µM]",pIC50 [3],SMILES,hERG inhibition (in words) [1],pIC50 ([1]; Table 11 comparison),"pIC50 ([1]; 33.0-37.0 °C, Table 10)",also measured
,> 10,6.30 to 7.00,Cc1cc(N[C@@H]2CCCN(C)C2)nnc1-c1ncccc1O [compound 108],,,,
,5 to 10,6.30 to 7.00,Cc1cc(N[C@@H]2CCCN(C)C2)nnc1-c1ncc(F)cc1O [compound 109],,,,
,> 10,6.30 to 7.00,Cc1cc(N2CCC[C@@H](N(C)C)C2)nnc1-c1ccccc1O [compound 111],,,,
,> 10,< 6.00,Cc1cc(N2CCC[C@@H](N(C)C)C2)nnc1-c1ccc(C#N)cc1O [compound 112],,,,
,> 10,< 6.00,Cc1cc(NC[C@H]2CCC(F)(F)C2)nnc1-c1ccccc1O [compound 113],,,,
,> 10,< 6.00,Cc1cc(NC[C@@H]2CCC(F)(F)C2)nnc1-c1ccccc1O [compound 114],,,,
,> 10,< 6.00,Cc1cc(NCC2CCOCC2)nnc1-c1ccccc1O [compound 115],,,,
,> 10,< 6.00,Cc1cc(NC[C@H]2CCCO2)nnc1-c1ccccc1O [compound 116],,,,
,> 10,6.00 to 6.30,Cc1cc(NC[C@@H]2CCCO2)nnc1-c1ccccc1O [compound 117],,,,
,> 10,< 6.00,Cc1cc(NCC23CC(CO2)C3)nnc1-c1ccccc1O [compound 118],,,,
,> 10,< 6.00,Cc1cc(NC[C@@H]2COCCO2)nnc1-c1ccccc1O [compound 120],,,,
,> 10,< 6.00,Cc1cc(NC[C@@H]2CCCN2C)nnc1-c1ccccc1O [compound 121],,,,
,> 10,< 6.00,Cc1cc(NC[C@H]2CCCN2C)nnc1-c1ccccc1O [compound 122],,,,
,> 10,< 6.00,COC(C)(C)C(=O)Nc1cc(C)c(-c2ccccc2O)nn1 [compound 123],,,,
,> 10,< 6.00,COC(C)(C)CNc1cc(C)c(-c2ccccc2O)nn1 [compound 124],,,,
